Values belong to the compound of their own block, whether it stands above or below them.
Experiments:
Fatty acid synthase [1] = molecular target: T1, Fatty acid synthase (Gallus gallus, UniProt P12276); assay: Inhibition of chicken liver FASN after 3 hrs
Fatty acid synthase [2] = molecular target: T1, Fatty acid synthase; assay: Inhibition of chicken liver FASN ketoreductase activity
BGC-823 = assay: Cytotoxicity against human BGC823 cells; assay type: functional, cell-based
[3] = Inhibition of duck liver FASN; design: species or system Anas platyrhynchos
Acetyl-CoA carboxylase 2 = Acetyl-CoA carboxylase 2 (Homo sapiens, UniProt O00763); assay: Inhibition of human ACC2 using acetyl coA as substrate and [14C]NaHCO3 incubated for 5 mins prior to substrate addition by liquid scintillation counting
Acetyl-CoA carboxylase 1 = Acetyl-CoA carboxylase 1 (Homo sapiens, UniProt Q13085); assay: Inhibition of human ACC1 using acetyl coA as substrate and [14C]NaHCO3 incubated for 5 mins prior to substrate addition by liquid scintillation counting
Fatty acid synthase [4] = molecular target: T2, Fatty acid synthase (Homo sapiens, UniProt P49327); assay: Inhibition of FASN in human SKBR3 cells; assay type: cell-based, SK-BR-3
T2 sequence (P49327 whole entry, the tested form may be a part): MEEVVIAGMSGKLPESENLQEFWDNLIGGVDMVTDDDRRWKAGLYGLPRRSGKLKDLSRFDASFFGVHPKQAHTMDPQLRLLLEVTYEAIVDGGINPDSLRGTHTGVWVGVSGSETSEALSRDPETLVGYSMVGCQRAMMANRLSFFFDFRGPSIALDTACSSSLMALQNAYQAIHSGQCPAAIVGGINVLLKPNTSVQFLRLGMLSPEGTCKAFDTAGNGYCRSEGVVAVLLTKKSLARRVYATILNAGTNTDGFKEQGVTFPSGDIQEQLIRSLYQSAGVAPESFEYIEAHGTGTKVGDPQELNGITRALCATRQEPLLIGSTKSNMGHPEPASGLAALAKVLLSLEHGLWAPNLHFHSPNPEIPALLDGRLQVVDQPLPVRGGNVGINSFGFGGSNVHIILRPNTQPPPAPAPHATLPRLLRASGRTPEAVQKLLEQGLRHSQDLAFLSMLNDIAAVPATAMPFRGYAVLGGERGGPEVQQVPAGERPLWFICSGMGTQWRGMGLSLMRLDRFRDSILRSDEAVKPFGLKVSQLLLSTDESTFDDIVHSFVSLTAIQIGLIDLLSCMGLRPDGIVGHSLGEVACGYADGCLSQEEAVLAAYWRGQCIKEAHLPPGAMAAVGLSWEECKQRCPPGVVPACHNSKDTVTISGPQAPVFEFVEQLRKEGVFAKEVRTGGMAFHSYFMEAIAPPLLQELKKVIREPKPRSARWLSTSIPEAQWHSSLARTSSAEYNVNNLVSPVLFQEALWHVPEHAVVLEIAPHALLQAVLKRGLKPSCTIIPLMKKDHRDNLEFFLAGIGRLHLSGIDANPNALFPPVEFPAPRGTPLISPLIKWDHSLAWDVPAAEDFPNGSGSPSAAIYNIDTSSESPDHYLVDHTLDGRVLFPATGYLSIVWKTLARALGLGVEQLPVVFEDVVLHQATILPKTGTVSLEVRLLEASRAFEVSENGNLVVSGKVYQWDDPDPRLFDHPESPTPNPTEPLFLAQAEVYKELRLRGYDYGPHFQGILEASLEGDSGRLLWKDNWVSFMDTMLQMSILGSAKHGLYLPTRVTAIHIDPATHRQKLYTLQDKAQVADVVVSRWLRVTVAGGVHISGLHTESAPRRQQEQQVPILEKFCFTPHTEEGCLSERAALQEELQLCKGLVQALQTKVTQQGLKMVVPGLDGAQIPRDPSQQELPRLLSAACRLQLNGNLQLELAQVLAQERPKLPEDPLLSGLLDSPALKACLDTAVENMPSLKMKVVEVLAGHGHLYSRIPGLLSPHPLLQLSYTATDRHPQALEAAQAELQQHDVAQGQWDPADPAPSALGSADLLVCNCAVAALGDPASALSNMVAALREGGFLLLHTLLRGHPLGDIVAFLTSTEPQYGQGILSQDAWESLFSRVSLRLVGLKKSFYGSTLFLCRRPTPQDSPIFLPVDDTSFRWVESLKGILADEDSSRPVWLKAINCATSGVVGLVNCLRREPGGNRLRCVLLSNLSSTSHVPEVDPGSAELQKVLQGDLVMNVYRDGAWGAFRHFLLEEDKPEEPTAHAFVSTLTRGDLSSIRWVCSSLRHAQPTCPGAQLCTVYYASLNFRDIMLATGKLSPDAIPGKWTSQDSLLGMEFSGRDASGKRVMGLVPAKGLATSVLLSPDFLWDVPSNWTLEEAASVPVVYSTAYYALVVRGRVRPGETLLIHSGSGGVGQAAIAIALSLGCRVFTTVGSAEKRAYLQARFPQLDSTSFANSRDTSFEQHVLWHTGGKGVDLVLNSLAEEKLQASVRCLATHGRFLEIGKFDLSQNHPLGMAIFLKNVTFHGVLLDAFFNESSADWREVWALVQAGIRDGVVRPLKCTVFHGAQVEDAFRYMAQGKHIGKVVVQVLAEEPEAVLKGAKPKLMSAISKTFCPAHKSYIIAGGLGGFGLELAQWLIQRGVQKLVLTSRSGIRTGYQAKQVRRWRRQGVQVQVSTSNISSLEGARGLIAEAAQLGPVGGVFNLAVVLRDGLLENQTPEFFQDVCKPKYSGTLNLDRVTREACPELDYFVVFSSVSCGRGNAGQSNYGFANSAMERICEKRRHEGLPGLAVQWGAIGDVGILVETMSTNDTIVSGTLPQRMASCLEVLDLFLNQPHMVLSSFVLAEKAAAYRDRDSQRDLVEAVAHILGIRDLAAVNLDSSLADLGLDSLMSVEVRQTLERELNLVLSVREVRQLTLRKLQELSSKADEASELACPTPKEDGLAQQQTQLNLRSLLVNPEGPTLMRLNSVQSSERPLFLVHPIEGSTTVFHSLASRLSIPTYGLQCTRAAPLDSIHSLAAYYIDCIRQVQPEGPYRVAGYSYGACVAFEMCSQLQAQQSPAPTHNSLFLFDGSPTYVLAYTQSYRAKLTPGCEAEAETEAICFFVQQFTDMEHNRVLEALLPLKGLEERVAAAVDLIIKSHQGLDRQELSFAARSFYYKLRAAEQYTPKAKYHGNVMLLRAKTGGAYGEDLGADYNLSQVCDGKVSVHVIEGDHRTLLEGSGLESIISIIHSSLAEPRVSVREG

Fatty acid synthase [5] = molecular target: T2, Fatty acid synthase; assay: Antagonist activity at recombinant FASN thioesterase domain by fluorogenic assay; assay type: functional
[6] = Inhibition of Escherichia coli FabB
Fatty acid synthase [7] = molecular target: T2, Fatty acid synthase; assay: Inhibition of FASN in human HepG2 cells; assay type: cell-based
Fatty acid synthase [8] = molecular target: Fatty acid synthase (Rattus norvegicus, UniProt P12785); assay: Inhibition of FASN in rat liver
Fatty acid synthase [9] = molecular target: T2, Fatty acid synthase; assay: Reversible inhibition of human recombinant FASN ketoreductase site
[10] = Inhibition of rat liver ACC
ATP-citrate synthase [11] = molecular target: T3, ATP-citrate synthase (Rattus norvegicus, UniProt P16638); assay: Competitive inhibition of rat liver ACLY using CoA as substrate by spectrophotometric analysis
T3 sequence (P16638 whole entry): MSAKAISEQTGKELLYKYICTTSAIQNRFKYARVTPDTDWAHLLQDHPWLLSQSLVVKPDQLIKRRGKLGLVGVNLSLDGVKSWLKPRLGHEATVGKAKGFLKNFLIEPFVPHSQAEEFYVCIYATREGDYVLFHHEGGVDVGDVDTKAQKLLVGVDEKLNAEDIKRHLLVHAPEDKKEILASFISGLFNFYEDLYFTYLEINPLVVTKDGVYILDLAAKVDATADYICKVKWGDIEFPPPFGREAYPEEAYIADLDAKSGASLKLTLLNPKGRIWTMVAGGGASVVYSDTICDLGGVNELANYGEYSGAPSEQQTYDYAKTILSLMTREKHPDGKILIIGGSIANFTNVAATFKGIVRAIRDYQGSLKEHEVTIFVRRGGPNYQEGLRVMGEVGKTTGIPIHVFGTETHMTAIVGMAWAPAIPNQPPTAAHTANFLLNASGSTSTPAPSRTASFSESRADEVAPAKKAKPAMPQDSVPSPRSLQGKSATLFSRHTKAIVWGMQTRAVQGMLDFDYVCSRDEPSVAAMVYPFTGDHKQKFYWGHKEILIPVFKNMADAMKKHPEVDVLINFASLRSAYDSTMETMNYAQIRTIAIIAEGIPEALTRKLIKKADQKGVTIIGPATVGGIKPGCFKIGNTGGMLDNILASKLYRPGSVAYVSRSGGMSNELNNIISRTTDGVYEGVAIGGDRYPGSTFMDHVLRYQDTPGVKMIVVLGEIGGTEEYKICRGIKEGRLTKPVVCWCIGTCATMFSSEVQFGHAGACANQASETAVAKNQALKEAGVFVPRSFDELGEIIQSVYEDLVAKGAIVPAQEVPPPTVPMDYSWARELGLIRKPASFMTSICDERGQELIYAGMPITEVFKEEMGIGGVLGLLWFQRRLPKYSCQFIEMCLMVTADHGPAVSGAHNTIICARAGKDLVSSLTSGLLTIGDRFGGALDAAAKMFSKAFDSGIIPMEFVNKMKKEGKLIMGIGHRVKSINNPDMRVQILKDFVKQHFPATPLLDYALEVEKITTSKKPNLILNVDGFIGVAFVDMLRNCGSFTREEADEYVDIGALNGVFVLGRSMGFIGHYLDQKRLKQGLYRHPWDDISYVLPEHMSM

ATP-citrate synthase [12] = molecular target: T3, ATP-citrate synthase; assay: Competitive inhibition of rat liver ACLY using citrate as substrate by spectrophotometric analysis
ATP-citrate synthase [13] = molecular target: T3, ATP-citrate synthase; assay: Competitive inhibition of rat liver ACLY using ATP as substrate by spectrophotometric analysis

T1 sequence (P12276 whole entry): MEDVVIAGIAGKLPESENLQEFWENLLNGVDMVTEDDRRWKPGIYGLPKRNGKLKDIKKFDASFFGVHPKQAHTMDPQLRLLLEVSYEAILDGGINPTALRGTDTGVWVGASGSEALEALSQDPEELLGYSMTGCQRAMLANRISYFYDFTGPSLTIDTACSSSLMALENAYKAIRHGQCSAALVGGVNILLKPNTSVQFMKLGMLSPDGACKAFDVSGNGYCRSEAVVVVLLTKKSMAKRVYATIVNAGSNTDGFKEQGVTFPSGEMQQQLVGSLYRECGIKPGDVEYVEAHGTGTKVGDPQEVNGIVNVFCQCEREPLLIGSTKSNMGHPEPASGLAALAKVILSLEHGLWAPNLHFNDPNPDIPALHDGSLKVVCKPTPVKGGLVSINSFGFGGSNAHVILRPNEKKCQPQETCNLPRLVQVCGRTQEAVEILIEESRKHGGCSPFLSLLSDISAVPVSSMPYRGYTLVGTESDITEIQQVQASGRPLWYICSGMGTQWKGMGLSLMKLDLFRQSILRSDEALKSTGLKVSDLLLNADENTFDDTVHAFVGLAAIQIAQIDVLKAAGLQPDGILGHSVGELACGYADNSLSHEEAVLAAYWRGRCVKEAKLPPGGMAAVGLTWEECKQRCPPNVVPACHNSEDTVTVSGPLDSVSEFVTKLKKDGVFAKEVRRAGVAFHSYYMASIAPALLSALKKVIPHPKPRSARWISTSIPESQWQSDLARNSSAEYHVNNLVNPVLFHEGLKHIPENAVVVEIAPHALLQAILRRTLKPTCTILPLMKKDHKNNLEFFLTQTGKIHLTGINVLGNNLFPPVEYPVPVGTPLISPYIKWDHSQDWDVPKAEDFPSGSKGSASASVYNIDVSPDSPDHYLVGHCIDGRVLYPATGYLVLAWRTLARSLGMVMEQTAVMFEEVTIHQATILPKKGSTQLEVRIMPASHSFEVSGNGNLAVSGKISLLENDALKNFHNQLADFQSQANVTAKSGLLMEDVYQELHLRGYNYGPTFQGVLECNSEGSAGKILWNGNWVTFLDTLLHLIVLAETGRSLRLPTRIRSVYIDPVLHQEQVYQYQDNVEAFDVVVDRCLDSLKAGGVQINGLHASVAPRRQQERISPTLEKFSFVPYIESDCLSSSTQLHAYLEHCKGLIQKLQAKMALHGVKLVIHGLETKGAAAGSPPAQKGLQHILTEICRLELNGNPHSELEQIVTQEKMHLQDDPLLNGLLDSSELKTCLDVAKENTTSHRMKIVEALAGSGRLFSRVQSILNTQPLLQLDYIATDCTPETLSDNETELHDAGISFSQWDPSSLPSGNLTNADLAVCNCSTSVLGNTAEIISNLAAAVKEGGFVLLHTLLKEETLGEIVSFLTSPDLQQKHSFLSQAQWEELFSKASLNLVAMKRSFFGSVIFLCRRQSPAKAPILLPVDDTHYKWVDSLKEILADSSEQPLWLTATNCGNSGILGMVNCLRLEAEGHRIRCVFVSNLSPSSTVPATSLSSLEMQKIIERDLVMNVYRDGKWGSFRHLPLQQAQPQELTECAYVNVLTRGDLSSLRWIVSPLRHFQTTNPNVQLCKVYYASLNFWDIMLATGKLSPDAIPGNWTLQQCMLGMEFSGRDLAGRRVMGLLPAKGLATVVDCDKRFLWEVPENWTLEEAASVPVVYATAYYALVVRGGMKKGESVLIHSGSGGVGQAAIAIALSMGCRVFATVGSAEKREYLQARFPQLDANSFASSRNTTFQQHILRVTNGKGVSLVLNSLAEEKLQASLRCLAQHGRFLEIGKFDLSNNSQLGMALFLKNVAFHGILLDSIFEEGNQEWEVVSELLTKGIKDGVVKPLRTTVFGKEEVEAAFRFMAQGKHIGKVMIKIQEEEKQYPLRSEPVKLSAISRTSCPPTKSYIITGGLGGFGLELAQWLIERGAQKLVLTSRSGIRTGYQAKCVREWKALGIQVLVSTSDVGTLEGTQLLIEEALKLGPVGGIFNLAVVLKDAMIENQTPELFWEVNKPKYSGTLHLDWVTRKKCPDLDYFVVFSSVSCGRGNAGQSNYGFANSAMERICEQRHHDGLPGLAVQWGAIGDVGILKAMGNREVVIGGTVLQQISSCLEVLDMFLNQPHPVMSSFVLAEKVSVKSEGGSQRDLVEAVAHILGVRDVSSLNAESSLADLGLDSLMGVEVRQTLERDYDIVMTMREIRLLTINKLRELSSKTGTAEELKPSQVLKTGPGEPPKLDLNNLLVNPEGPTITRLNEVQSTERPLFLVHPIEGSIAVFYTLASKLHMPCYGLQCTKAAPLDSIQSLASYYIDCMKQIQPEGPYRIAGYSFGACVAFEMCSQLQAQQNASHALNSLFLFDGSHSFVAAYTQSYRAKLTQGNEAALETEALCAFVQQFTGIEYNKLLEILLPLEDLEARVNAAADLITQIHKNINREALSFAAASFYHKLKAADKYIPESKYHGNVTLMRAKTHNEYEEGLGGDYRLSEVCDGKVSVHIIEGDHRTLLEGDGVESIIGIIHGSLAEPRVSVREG

SMILES: O=C(O[C@@H]1Cc2c(O)cc(O)cc2O[C@@H]1c1ccc(O)c(O)c1)c1cc(O)c(O)c(O)c1 [EPICATECHIN GALLATE]
IC50 (Fatty acid synthase [1]): 42 µM
IC50 (Fatty acid synthase [2]): 68 µM

SMILES: CC(C)Oc1ccc(C2=NC(CSc3nc4ncccc4o3)CO2)cc1 (configuration not stated)
IC50 (Acetyl-CoA carboxylase 2): 2.8 µM
IC50 (Acetyl-CoA carboxylase 1): > 100 µM

SMILES: CCCCC/C=C\C=C\CCCCCCCCC(=O)O
IC50 (Fatty acid synthase [4]): 100 µM

SMILES: O=C1O[C@@H](CCc2ccccc2)[C@H]1Cc1ccccc1
Ki (Fatty acid synthase [5]): 2.5 µM

SMILES: C=C/C(C)=C/[C@@]1(C)SC(=O)C(C)=C1O [THIOLACTOMYCIN]
IC50 [6]: 1.9 µM
IC50 (Fatty acid synthase [7]): > 380 µM
IC50 (Fatty acid synthase [8]): > 951 µM

SMILES: C[C@@H]1C[C@H]2O[C@@H]2/C=C\C=C\C(=O)Cc2c(Cl)c(O)cc(O)c2C(=O)O1 [RADICICOL]
Ki (ATP-citrate synthase [13]): 7 µM
Ki (ATP-citrate synthase [12]): 13 µM

More lines, main results first:

IC50 [3]: 0.21 µM
SMILES: O=C(O[C@H]1O[C@@H]2COc3c(c4cc(O)c(O)c(O)c4c4c(O)c(O)c(O)cc34)O[C@H]2[C@H](OC(=O)c2cc(O)c(O)c(O)c2)[C@H]1OC(=O)c1cc(O)c(O)c(O)c1)c1cc(O)c(O)c(Oc2c(C(=O)O[C@@H]3O[C@@H]4COC(=O)c5cc(O)c(O)c(O)c5-c5c(cc(O)c(O)c5O)C(=O)O[C@H]4[C@@H]4OC(=O)c5cc(O)c(O)c(O)c5-c5c(cc(O)c(O)c5O)C(=O)O[C@@H]34)cc(O)c(O)c2O)c1 [GEMIN A]
IC50 (BGC-823): 40.4 µM

IC50 (Fatty acid synthase [9]): 0.0158 µM
SMILES: Cc1ccnc(NS(=O)(=O)c2ccc(NC(=O)Nc3ccc(S(=O)(=O)Nc4nccc(C)n4)cc3)cc2)n1

Ki [10]: 70 µM
Ki (ATP-citrate synthase [11]): 3 µM
Ki (ATP-citrate synthase [12]): 16 µM
SMILES: CC(C)(CCCCCCCCCCC(C)(C)CC(=O)O)CC(=O)O

Reference: ChEMBL document CHEMBL2163275, “The lipogenesis pathway as a cancer target” (J Med Chem, 2011)
